Measurements: US20210330611A1, “THERAPY FOR NEUROLOGICAL DISEASES/DISORDERS” (priority 2020, published 2021)
Several values for one entry are separate records, joined by “and”; a condition that tells them apart may be missing. Identical values can stand only once. Like-named read-outs stand apart in the source and are kept apart here.

Assays:
[1] = tested on: fibrin- and LPS-induced microglia activation; test: cells; type: cell-based, rat
[2] = tested on: LPS-induced microglia activation; test: Image-based assay of LPS-induced microglia activation (HTS and dose response); type: cell-based, rat; settings: for inhibition at 10 µM: Rattus norvegicus, Microglia, read-out: LPS % inhibition
[3] = tested on: fibrin-induced microglia activation; test: Image-based assay of fibrin-induced microglia activation (HTS and dose response); type: cell-based, rat; settings: primary microglia HTS, fibrin stimulation; for inhibition at 10 µM: Rattus norvegicus, Microglia, read-out: Fibrin % inhibition
[4] = tested on: primary rat microglia
[5] = tested on: primary rat microglia; test: Cell toxicity (dead cells, size <150 μm2) in coated fibrin (cFib) assay; settings: primary microglia HTS;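 note: share of dead cells sized under 150 µm2 at 10 µM in fibrin-stimulated microglia HTS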
[6] = classification by fibrin and LPS inhibition, HTS at 10 μM
[7] = primary microglia HTS, LPS stimulation, compounds at 10 μM
[8] = fibrin assay, dead cells (size <150 μm2), compounds at 10 μM
[9] = primary microglia HTS, LPS stimulation, compounds at 10 μM, 10 µM
[10] = quadrant by fibrin and LPS inhibition, HTS at 10 μM
[11] = fibrin assay, dead cells (size <150 μm2)
[12] = classification by fibrin and LPS inhibition in HTS
[13] = cell size >800 μm2 as marker of activation
[14] = fibrin stimulation, cell size <150 μm2 as marker of toxicity

| Compound | Quadrant (FIG. 5b) [1, 6] | inhibition at 10 µM [2, 7] | inhibition at 10 µM ([3]; compounds at 10 μM) | LPS % cell toxicity ([4]; rat) | Fibrin % cell toxicity [5, 8] | Quadrant (FIG. 5b) [1, 10] | Fibrin % cell toxicity [5, 11] | Quadrant (FIG. 5b) [1, 12] | inhibition at 10 µM ([2]; 48 h) | inhibition at 10 µM [3, 13] | Fibrin % cell toxicity [5, 14] | also measured |
| --- | --- | --- | --- | --- | --- | --- | --- | --- | --- | --- | --- | --- |
| C[C@H](CCC(=O)O)[C@H]1CC[C@H]2[C@@H]3C(=O)C[C@@H]4CC(=O)CC[C@]4(C)[C@H]3CC(=O)[C@]12C [Dehydrocholic Acid] | Q4 | 7% | -30% | 0% | 1% |  |  |  |  |  |  |  |
| COc1ccc2c(c1)[C@]13CCCC[C@@H]1[C@H](C2)N(C)CC3 [Dextromethorphan] | Q4 |  |  | 0% | 1% |  |  |  |  |  |  | LPS % inhibition [2, 9]: 4% and −5%; Fibrin % inhibition ([3]; compounds at 10 μM, 10 µM): −18% and −20% |
| O=C1C(O)=C([C@H]2CC[C@H](c3ccc(Cl)cc3)CC2)C(=O)c2ccccc21 [Atovaquone] |  | 13% | -15% | 0% |  | Q4 | 0% |  |  |  |  |  |
| CC(=O)NCCCCCC(=O)O [Acexamic Acid] |  | 13% | -25% | 0% |  | Q4 | 1% |  |  |  |  |  |
| CC1=NN(c2ccccc2)C(=O)C1 |  |  |  |  |  | Q4 | 1% |  |  |  |  | LPS % inhibition [2, 7]: 15%; Fibrin % inhibition ([3]; compounds at 10 μM): −15%; LPS % cell toxicity [4]: 0% |
| CC1=NS(=O)(=O)c2cc(Cl)ccc2N1 [Diazoxide] | Q4 | 24% | 3% | 0% | 0% |  |  |  |  |  |  |  |
| Cl.NCC(O)c1ccc(O)cc1 (racemic) |  |  |  |  |  | Q4 | 1% |  |  |  |  | LPS % inhibition [2, 7]: 16%; Fibrin % inhibition ([3]; compounds at 10 μM): −48%; LPS % cell toxicity [4]: 0% |
| OCc1ccccn1 [Piconol] |  |  |  | 1% |  |  |  | Q4 | 26% | -1% | 1% |  |
| CCC1(c2ccccc2)C(=O)NC(=O)NC1=O [Phenobarbital] |  |  |  | 0% |  |  |  | Q4 | -7% | -22% | 0% |  |
| CN1C[C@H](C(=O)N[C@]2(C)O[C@@]3(O)[C@@H]4CCCN4C(=O)[C@H](Cc4ccccc4)N3C2=O)C=C2c3cccc4[nH]cc(c34)C[C@H]21 [Ergotamine] | Q4 |  |  | 0% | 1% |  |  |  |  |  |  | LPS % inhibition [2, 9]: −4%; Fibrin % inhibition ([3]; compounds at 10 μM, 10 µM): 6% |
| CNCC(=O)c1ccc(O)c(O)c1.Cl [Adrenolone Hydrochloride] |  |  |  |  |  | Q4 | 0% |  |  |  |  | LPS % inhibition [2, 7]: 32%; Fibrin % inhibition ([3]; compounds at 10 μM): 28%; LPS % cell toxicity [4]: 0% |
| Cc1oc(=O)oc1CN1CCN(c2cc3c(cc2F)c(=O)c(C(=O)O)c2n3C(C)S2)CC1 (centres unmarked) [Prulifloxacin] |  |  |  | 0% |  |  |  | Q4 | 16% | 7% | 1% |  |
| CCCCC(=O)O[C@H]1CC[C@H]2[C@@H]3CCc4cc(O)ccc4[C@H]3CC[C@]12C [Estradiol Valerate] | Q4 | 16% | -8% | 1% | 1% |  |  |  |  |  |  |  |
| CN1CCN(C(c2ccccc2)c2ccccc2)CC1 [Cyclizine] | Q4 | 34% | -23% | 1% | 0% |  |  |  |  |  |  |  |
| CC(=O)SCC(Cc1ccccc1)C(=O)NCC(=O)OCc1ccccc1 (centres unmarked) [Racecadotril] |  |  |  | 0% |  |  |  | Q4 | 18% | -51% | 1% |  |
| CC(=O)NC(Cc1ccccc1)C(=O)O (centres unmarked) [Afalanine] |  | 10% | 0% | 0% |  | Q4 | 1% |  |  |  |  |  |
| Apramycin Sulfate |  |  |  |  |  | Q4 | 1% |  |  |  |  | LPS % inhibition [2, 7]: 25%; Fibrin % inhibition ([3]; compounds at 10 μM): 11%; LPS % cell toxicity [4]: 1% |
| CCC1(CC)C(=O)C=CNC1=O [Pyrithyldione] |  |  |  | 0% |  |  |  | Q4 | 9% | -24% | 1% |  |
| O=C(O)c1ccccc1C(=O)Nc1ccc(S(=O)(=O)Nc2nccs2)cc1 [Phthalylsulfathiazole] |  |  |  | 1% |  |  |  | Q4 | 13% | 3% | 1% |  |
